The text below walks through data of patent publication US20230159510A1, “NOVEL PRMT5 INHIBITORS” (AMGEN INC., priority 2020, published 2023).

Read-outs that look alike come from different tables or passages of the source. Where only a bound is given, the exact number is not on record here.

One experiment relates to HCT116 MTAP null cells. Description: HCT116 proliferation assay, MTAP null cells (CellTiter-Glo, 6 days). The format is cell-based. Particulars: 144 h, read-out: Protif_ HCT116-MTAP null IC50. The procedure, abridged:
(§1)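 Cells grown in RPMI 1640 + 10% FBS, plated overnight, then exposed for 6 days to 8- or 9-point 1:3 compound dilutions (top 1 or 10 µM) with DMSO control. Viability read by CellTiter-Glo luminescence.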

The test system of a further experiment is HCT116 WT cells. In words: HCT116 proliferation assay, WT cells (CellTiter-Glo, 6 days). The format is cell-based. Particulars: Homo sapiens, HCT-116, 144 h, read-out: Prolif_HCT116-WT IC50. The procedure, abridged: as §1
A general note: ATP-based viability assays read luminescence as a measure of living cells.

In another experiment the target is PRMT5/MEP50 (Homo sapiens, UniProt O14744). In words: MTase-Glo methyl transferase assay, Method A (Histone H4 peptide, 1 µM MTA, 24 h pre-incubation). Particulars: read-out: PRMT5 MTase Glo Ki (nM, Meth. A). Also on record: made in house. Type of experiment: biochemical. As to the method:
Method A: The PRMT5 inhibitory activity of test compounds was determined using the MTase-Glo™ assay (Promega), which monitors the product (S-adenosyl homocysteine or SAH) of methyltransferase reactions. The PRMT5 MTase-Glo assay was conducted in a 384-well white ProxiPlate (PerkinElmer) in a total volume of 12 µL. The PRMT5 enzymatic reaction (in 4 µL) contained 10 nM PRMT5/MEP50 (produced at Amgen), 5 µM S-adenosyl methionine (SAM, Promega), 1 µM Histone H4 (1-21)-Lys(Biotin) (Anaspec), 1 µM 5′-methylthioadenosine (MTA, Sigma) and two-fold serially diluted compounds in a reaction buffer of 50 mM Tris (pH 8.0), 50 mM NaCl, 0.01% Tween 20, 0.01% BSA, and 1 mM DTT. Test compounds were pre-incubated with PRMT5/MEP50, SAM, and MTA for 24 hours before addition of Histone H4 peptide to initiate the PRMT5 reaction. The reaction was allowed to proceed for 2 hours at room temperature and was then terminated by addition of 2 µL of 3X MTase-Glo™ Reagent (Promega) and 150 µM EPZ015666 (Sigma). After a 30-minute incubation at room temperature, 6 µL of MTase-Glo™ Detection Solution (Promega) was added and the plate was incubated at room temperature for an additional 30 minutes. The light signal corresponding to the amount of SAH produced by the PRMT5 reaction was subsequently measured using an Envision multimode reader (PerkinElmer). IC50 and KI values were obtained by analyzing dose-response curves using Genedata Screener (Genedata).

PRMT5/MEP50, sequence (O14744 whole entry): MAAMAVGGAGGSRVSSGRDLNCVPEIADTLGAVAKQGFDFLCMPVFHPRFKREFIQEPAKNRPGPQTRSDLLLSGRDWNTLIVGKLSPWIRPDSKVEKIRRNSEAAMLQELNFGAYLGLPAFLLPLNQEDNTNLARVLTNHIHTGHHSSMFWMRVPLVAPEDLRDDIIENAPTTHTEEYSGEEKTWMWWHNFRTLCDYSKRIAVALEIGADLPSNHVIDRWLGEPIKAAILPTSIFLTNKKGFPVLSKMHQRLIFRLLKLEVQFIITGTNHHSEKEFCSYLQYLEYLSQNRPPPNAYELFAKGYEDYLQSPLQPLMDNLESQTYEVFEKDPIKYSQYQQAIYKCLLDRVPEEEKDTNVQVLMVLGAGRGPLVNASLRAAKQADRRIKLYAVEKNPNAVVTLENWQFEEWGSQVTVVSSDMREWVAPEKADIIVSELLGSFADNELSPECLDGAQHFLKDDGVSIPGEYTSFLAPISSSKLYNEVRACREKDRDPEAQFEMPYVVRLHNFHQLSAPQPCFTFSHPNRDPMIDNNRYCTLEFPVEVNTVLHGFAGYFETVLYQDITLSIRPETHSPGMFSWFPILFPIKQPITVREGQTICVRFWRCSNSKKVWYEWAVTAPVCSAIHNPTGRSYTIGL
PRMT5/MEP50, sequence (Q9BQA1 whole entry partner): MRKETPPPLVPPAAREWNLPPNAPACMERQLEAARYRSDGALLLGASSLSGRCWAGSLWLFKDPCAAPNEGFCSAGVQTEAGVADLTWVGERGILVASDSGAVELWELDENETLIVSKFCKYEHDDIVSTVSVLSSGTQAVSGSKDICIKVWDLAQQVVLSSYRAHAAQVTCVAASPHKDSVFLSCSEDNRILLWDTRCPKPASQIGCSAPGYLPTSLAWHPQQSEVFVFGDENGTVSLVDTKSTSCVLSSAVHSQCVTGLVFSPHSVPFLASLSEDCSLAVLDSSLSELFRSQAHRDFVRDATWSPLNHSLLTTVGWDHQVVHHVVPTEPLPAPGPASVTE

One may read the IC50 as the concentration needed to halve the response being measured. The term Ki denotes a measure of affinity in units of concentration, obtained from inhibition or displacement. On to `Cc1cc2cc(C(=O)N(Cc3ccc(C(F)(F)F)cn3)[C@H](C)c3ccc(Cl)cn3)ccc2nc1N` [Example 428, 2-amino-N-((1R)-1-(5-chloro-2-pyridinyl)ethyl)-3-methyl-N-((5-(trifluoromethyl)-2-pyridinyl)methyl)-6-quinolinecarboxamide], for which the half-inhibitory concentration (IC50) in the experiment on HCT116 MTAP null cells (HCT116-MTAP null) stood at 188 nM; in the experiment on HCT116 WT cells it was 3680 nM. On PRMT5/MEP50, the inhibition constant (Ki) is 0.08 nM.

In the case of `C[C@H](c1ncccc1F)N(Cc1ccc(C(F)(F)F)nn1)C(=O)c1cnc2nc(N)c(Br)cc2c1` [Example 397, 7-amino-6-bromo-N-((1R)-1-(3-fluoro-2-pyridinyl)ethyl)-N-((6-(trifluoromethyl)-3-pyridazinyl)methyl)-1,8-naphthyridine-3-carboxamide], the IC50 with HCT116 MTAP null cells (HCT116-MTAP null) stood at 286 nM; in the experiment with HCT116 WT cells, 7960 nM. The Ki on PRMT5/MEP50 turned out to be 0.23 nM.

Take `Cc1cc2cc(C(=O)N(Cc3ccc(C(=O)N(C)C)cn3)Cc3ncccc3F)ccc2nc1N` [Example 560, 2-amino-N-((5-(dimethylcarbamoyl)-2-pyridinyl)methyl)-N-((3-fluoro-2-pyridinyl)methyl)-3-methyl-6-quinolinecarboxamide]: the results for the half-inhibitory concentration (IC50) with HCT116 MTAP null cells (HCT116-MTAP null) and in the experiment with HCT116 WT cells were 623 nM and > 10000 nM, respectively. Besides, the Ki on PRMT5/MEP50 was determined as 0.2 nM.

In the case of `Cc1cc2cc(C(=O)N(Cc3ccc(Br)cn3)[C@H](C)c3ncccc3Cl)ccc2nc1N` [Example 394, 2-amino-N-((5-bromo-2-pyridinyl)methyl)-N-((1R)-1-(3-chloro-2-pyridinyl)ethyl)-3-methyl-6-quinolinecarboxamide], the 50% inhibitory concentration (IC50) in the experiment on HCT116 MTAP null cells (HCT116-MTAP null) is 384 nM; in the experiment on HCT116 WT cells, > 10000 nM. Besides, the inhibition constant Ki at PRMT5/MEP50 was found to be 0.12 nM.

As to `Cc1cc2cc(C(=O)N(Cc3ncc(C(F)(F)F)cc3F)CC(C)C)ccc2nc1N` [Example 308, 2-amino-N-((3-fluoro-5-(trifluoromethyl)-2-pyridinyl)methyl)-3-methyl-N-(2-methylpropyl)-6-quinolinecarboxamide], the concentration for half-maximal inhibition (IC50) is 620 nM in the experiment with HCT116 MTAP null cells (HCT116-MTAP null) and > 10000 nM in the experiment on HCT116 WT cells. Moreover, the Ki on PRMT5/MEP50 came out at 2.34 nM.

With `Cc1cc2cc(C(=O)N(Cc3ccc(C(F)(F)F)cn3)Cc3cnc(N)s3)ccc2nc1N` [Example 305, 2-amino-N-((2-amino-1,3-thiazol-5-yl)methyl)-3-methyl-N-((5-(trifluoromethyl)-2-pyridinyl)methyl)-6-quinolinecarboxamide], the half-inhibitory concentration (IC50) stood at 268 nM with HCT116 MTAP null cells (HCT116-MTAP null) and 8770 nM in the experiment with HCT116 WT cells. For the same compound, the Ki at PRMT5/MEP50 was 15.1 nM.

Consider `Cc1cnc(CN(Cc2ccc(C(F)(F)F)cn2)C(=O)c2ccc3nc(N)c(C)cc3c2)cn1` [Example 337, 2-amino-3-methyl-N-((5-methyl-2-pyrazinyl)methyl)-N-((5-(trifluoromethyl)-2-pyridinyl)methyl)-6-quinolinecarboxamide], for which the concentration for half-maximal inhibition (IC50) with HCT116 MTAP null cells (HCT116-MTAP null) was 434 nM; with HCT116 WT cells it was > 10000 nM. For the same compound, the Ki on PRMT5/MEP50 is 0.39 nM.

For the compound `Cc1cc2cc(C(=O)N(Cc3ccc(C4=CCCOC4)cn3)[C@H](C)c3ncccn3)ccc2nc1N` [Example 558, 2-amino-N-((5-(5,6-dihydro-2H-pyran-3-yl)-2-pyridinyl)methyl)-3-methyl-N-((1R)-1-(2-pyrimidinyl)ethyl)-6-quinolinecarboxamide], the values for the 50% inhibitory concentration (IC50) with HCT116 MTAP null cells (HCT116-MTAP null) and with HCT116 WT cells were 38 nM and 1300 nM, respectively. The inhibition constant (Ki) at PRMT5/MEP50 is 0.08 nM.

For `Cc1cc2cc(C(=O)N(Cc3ccc(C(F)(F)F)nc3)Cc3ncccc3F)ccc2nc1N` [Example 322, 2-amino-N-((3-fluoro-2-pyridinyl)methyl)-3-methyl-N-((6-(trifluoromethyl)-3-pyridinyl)methyl)-6-quinolinecarboxamide], the IC50 with HCT116 MTAP null cells (HCT116-MTAP null) was 385 nM; in the experiment with HCT116 WT cells it was > 10000 nM. The Ki on PRMT5/MEP50 stood at 1.09 nM.

As to `CC[C@H](c1ncccn1)N(Cc1ccc(C(F)F)cn1)C(=O)c1cnc2nc(N)c(Br)cc2c1` (single isomer, unassigned) [Example 500], the values for the IC50 in the experiment with HCT116 MTAP null cells (HCT116-MTAP null) and in the experiment on HCT116 WT cells were 187 nM and 4590 nM, respectively. In addition, at PRMT5/MEP50, the Ki turned out to be 0.52 nM.

On to `C[C@H](c1ncccn1)N(Cc1ccc(C(F)(F)F)cn1)C(=O)c1ccc2nc(N)cc(Cl)c2c1` [Example 433, 2-amino-4-chloro-N-((1R)-1-(2-pyrimidinyl)ethyl)-N-((5-(trifluoromethyl)-2-pyridinyl)methyl)-6-quinolinecarboxamide], for which the IC50 turned out to be 821 nM in the experiment on HCT116 MTAP null cells (HCT116-MTAP null) and 1170 nM in the experiment with HCT116 WT cells. Further, the inhibition constant Ki on PRMT5/MEP50 was 1.26 nM.

Turning to `Cc1cc2cc(C(=O)N(Cc3cnc(C#N)cn3)[C@H](C)c3ncccn3)ccc2nc1N` [Example 553, 2-amino-N-((5-cyano-2-pyrazinyl)methyl)-3-methyl-N-((1R)-1-(2-pyrimidinyl)ethyl)-6-quinolinecarboxamide], the figures for the IC50 with HCT116 MTAP null cells (HCT116-MTAP null) and in the experiment on HCT116 WT cells were 454 nM and > 10000 nM, respectively. The Ki at PRMT5/MEP50 worked out at 0.36 nM.

As for `Cc1cc2cc(C(=O)N(Cc3ccc(C(F)(F)F)cn3)Cc3ncccn3)ccc2nc1N` [Example 338, 2-amino-3-methyl-N-(2-pyrimidinylmethyl)-N-((5-(trifluoromethyl)-2-pyridinyl)methyl)-6-quinolinecarboxamide], the IC50 in the experiment on HCT116 MTAP null cells was 232 nM; in the experiment with HCT116 WT cells it was > 10000 nM. Moreover, the inhibition constant Ki at PRMT5/MEP50 was found to be 0.8 nM.

For the compound `Cc1cc2cc(C(=O)N(Cc3cccc(C(F)(F)F)n3)[C@H](C)c3ncccn3)ccc2nc1N` (single isomer, unassigned) [Example 526], the IC50 was 323 nM with HCT116 MTAP null cells (HCT116-MTAP null) and > 10000 nM with HCT116 WT cells. Also, the Ki on PRMT5/MEP50 turned out to be 0.33 nM.

For `C[C@H](c1ncccn1)N(Cc1ccc(C#N)cn1)C(=O)c1cnc2nc(N)c(Br)cc2c1` [Example 406, 7-amino-6-bromo-N-((5-cyano-2-pyridinyl)methyl)-N-((1R)-1-(2-pyrimidinyl)ethyl)-1,8-naphthyridine-3-carboxamide], the IC50 with HCT116 MTAP null cells (HCT116-MTAP null) was 682 nM; with HCT116 WT cells, > 10000 nM. Further, the Ki on PRMT5/MEP50 came out at 0.47 nM.

Regarding `C[C@H](c1ncccn1)N(Cc1ccc(C(F)(F)F)cn1)C(=O)c1ccc2nc(N)c(I)cc2c1` (single isomer, unassigned) [Example 544], the IC50 was determined as 21 nM in the experiment with HCT116 MTAP null cells (HCT116-MTAP null) and 723 nM in the experiment with HCT116 WT cells. Besides, the Ki at PRMT5/MEP50 is 0.08 nM.

`Cc1cc2cc(C(=O)N(Cc3ccc(C#N)cn3)[C@H](C)c3ncccc3F)c(F)cc2nc1N` [Example 353, 2-amino-N-((5-cyano-2-pyridinyl)methyl)-7-fluoro-N-((1R)-1-(3-fluoro-2-pyridinyl)ethyl)-3-methyl-6-quinolinecarboxamide]: the half-maximal inhibitory concentration (IC50) in the experiment on HCT116 MTAP null cells (HCT116-MTAP null) came to 73 nM; in the experiment with HCT116 WT cells it was 1510 nM. The Ki at PRMT5/MEP50 came out at 0.02 nM.

Take `Cc1cc2cc(C(=O)N(Cc3ncc(C(F)(F)F)s3)[C@H](C)c3ncccn3)ccc2nc1N` (single isomer, unassigned) [Example 492]: the half-maximal inhibitory concentration (IC50) with HCT116 MTAP null cells (HCT116-MTAP null) was found to be 175 nM; with HCT116 WT cells it was 3390 nM. The Ki at PRMT5/MEP50 was determined as 0.22 nM.

Regarding `Cc1cc2cc(C(=O)N(Cc3ccc(C#N)cc3)[C@H](C)c3ncccn3)ccc2nc1N` (single isomer, unassigned) [Example 475], the figures for the IC50 in the experiment on HCT116 MTAP null cells (HCT116-MTAP null) and in the experiment with HCT116 WT cells were 268 nM and 4460 nM, respectively. Also, on PRMT5/MEP50, the Ki turned out to be 0.07 nM.

As to `COc1ccc(CN(C(=O)c2cc3cc(C)c(N)nc3cc2F)[C@@H](C)c2ncccn2)nn1` (single isomer, unassigned) [Example 480], the results for the IC50 with HCT116 MTAP null cells (HCT116-MTAP null) and with HCT116 WT cells were 369 nM and 1460 nM, respectively. The Ki at PRMT5/MEP50 turned out to be 1.49 nM.

For the compound `COc1ccc(CN(C(=O)c2ccc3nc(N)c(Cl)cc3c2)[C@H](C)c2ncccn2)nn1` [Example 413, 2-amino-3-chloro-N-((6-methoxy-3-pyridazinyl)methyl)-N-((1R)-1-(2-pyrimidinyl)ethyl)-6-quinolinecarboxamide], the values for the IC50 with HCT116 MTAP null cells (HCT116-MTAP null) and in the experiment with HCT116 WT cells were 655 nM and > 10000 nM, respectively. Moreover, on PRMT5/MEP50, the inhibition constant (Ki) turned out to be 0.65 nM.

On to `Nc1nc2ncc(C(=O)N(Cc3ccc(C(F)(F)F)cn3)[C@@H]3CCCc4nccnc43)cc2cc1Br` (single isomer, unassigned) [Example 467], for which the figures for the IC50 in the experiment with HCT116 MTAP null cells (HCT116-MTAP null) and with HCT116 WT cells were 28 nM and 248 nM, respectively. Moreover, the Ki at PRMT5/MEP50 worked out at 0.21 nM.

`Cc1cc2cc(C(=O)N(Cc3ccc(C(F)(F)F)cn3)[C@@H]3CCCC(F)(F)[C@@H]3O)ccc2nc1N` (single isomer, unassigned) [Example 466]: the results for the half-inhibitory concentration (IC50) with HCT116 MTAP null cells (HCT116-MTAP null) and in the experiment with HCT116 WT cells were 269 nM and 4270 nM, respectively. The inhibition constant Ki at PRMT5/MEP50 amounted to 0.13 nM.

Consider `Cc1cc2cc(C(=O)N(Cc3ccc(C(F)(F)F)cn3)[C@@H](C)c3ncccc3F)ccc2nc1N` [Example 386, 2-amino-N-((1S)-1-(3-fluoro-2-pyridinyl)ethyl)-3-methyl-N-((5-(trifluoromethyl)-2-pyridinyl)methyl)-6-quinolinecarboxamide], for which the IC50 was determined as 241 nM in the experiment on HCT116 MTAP null cells and 3830 nM in the experiment on HCT116 WT cells. The Ki on PRMT5/MEP50 amounted to 3.46 nM.
